The nature of one data set: EC50 values of FIG. 3(B). The settings on record: test not named.
Data set [1] is classed as physicochemical. The source says:
The chemical stability of solid compounds may be evaluated at room temperature. The stability of the compound was monitored using a combination of HPLC and LCMS.

Experiment in data set [2]: not given
The source holds these as a separate data set.

The target in data set [3] is T1, Bcl-XL (Homo sapiens (Human), UniProt Q07817). Nature of the data set: 1D 1H-NMR binding assay against Bcl-XL. Further details: key: +++: Very Active; ++: Active; +: Mild; −: Weak. Conditions: 4-point-rating scale, binding to Bcl-XL.
Target sequence in this assay (Q07817 whole entry): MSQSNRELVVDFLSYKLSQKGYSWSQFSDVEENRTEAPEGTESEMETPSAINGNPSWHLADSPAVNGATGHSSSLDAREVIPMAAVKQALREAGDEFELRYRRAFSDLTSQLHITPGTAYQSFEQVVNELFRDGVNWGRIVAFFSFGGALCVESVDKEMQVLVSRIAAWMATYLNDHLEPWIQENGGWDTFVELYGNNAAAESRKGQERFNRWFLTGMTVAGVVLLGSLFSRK
The subject of the next data set is primary CLL cells. Put plainly: Annexin-V apoptosis assay, primary CLL cells. The class given is cell-based, human.
The target in data set [4] is T1, Bcl-XL. Nature of the data set: Fluorescence polarization competitive binding assay (FPA), Bcl-XL. The settings on record: displacement of BH3 peptide.
Target sequence in this assay (Q07817 1-211): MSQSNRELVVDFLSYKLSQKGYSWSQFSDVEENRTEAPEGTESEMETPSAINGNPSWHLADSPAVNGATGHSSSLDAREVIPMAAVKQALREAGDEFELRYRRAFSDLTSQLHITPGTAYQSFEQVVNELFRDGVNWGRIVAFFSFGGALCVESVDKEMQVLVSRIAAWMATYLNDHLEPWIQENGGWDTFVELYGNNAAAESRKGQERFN
Procedure: (§3) For competitive binding assays, 100 nM GST-BCL-XL ΔTM protein was preincubated with the tested compound at varying concentrations in 47.5 μL PBS (pH=7.4) in 96-well black plates at room temperature for 10 min, then 2.5 μL of 100 nM FITC-labeled Bak BH3 peptide was added to produce a final volume of 50 μL. The wild-type and mutant Bak BH3 peptides were included in each assay plate as positive and negative controls, respectively. After 30 min incubation at room temperature, the polarization values in millipolarization units were measured at excitation/emission wavelengths of 480/535 nm with a multilabel plate reader (PerkinElmer). IC50 was determined by fitting the experimental data to a sigmoidal dose-response nonlinear regression model (SigmaPlot 10.0.1, Systat Software, Inc., San Jose, Calif., USA). Data reported are mean of three independent experiments±standard error (SE). […] Fluorescence polarization was measured after 10 min.
A further data set has as its target Bcl-2 (Homo sapiens (Human), UniProt P10415). Nature of the data set: Fluorescence polarization competitive binding assay (FPA), Bcl-2. The settings on record: displacement of BH3 peptide.
In the next data set the target is Bfl-1 (Homo sapiens (Human), UniProt Q16548). Nature of the data set: Fluorescence polarization competitive binding assay (FPA), Bfl-1. The settings on record: displacement of BH3 peptide.
Bfl-1, sequence (Q16548 whole entry): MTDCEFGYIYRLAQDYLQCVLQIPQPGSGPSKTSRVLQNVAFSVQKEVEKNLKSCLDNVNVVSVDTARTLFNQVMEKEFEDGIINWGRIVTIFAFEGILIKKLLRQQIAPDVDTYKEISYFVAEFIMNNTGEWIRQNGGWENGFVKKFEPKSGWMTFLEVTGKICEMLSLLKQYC
The next data set has as its target Mcl-1 (Homo sapiens (Human), UniProt Q07820). Nature of the data set: Fluorescence polarization competitive binding assay (FPA), Mcl-1. The settings on record: displacement of BH3 peptide.
The target in data set [5] is T1, Bcl-XL. Nature of the data set: Isothermal titration calorimetry (ITC), Bcl-XL. The data set is classed as binding.
Target sequence in this assay (Q07817 whole entry): as the sequence (Q07817 whole entry) above
The conditions of data set [6]: administered orally (6a); cited from earlier work.
Data set [7] can be described thus: In vitro plasma stability. The settings on record: for Plasma Stability (T = 40 mins): Table 4.
Source text: (§4) To test the pharmacological properties of the compounds of Formula I, the in vitro plasma stability, microsomal stability, and cell membrane permeability may be determined.
The next data set relates to PPC-1 xenograft tumors. Nature of the data set: PPC-1 tumor xenograft study in nude mice.
Data set [8] is described as follows: In vitro microsomal stability. The settings on record: Table 4.
Source text: as §4
A further data set concerns PC3 cell line. Nature of the data set: ATP-LITE cell viability assay, PC3. The data set is classed as cell-based. Conditions: Homo sapiens, PC-3, 72 h, 3 days. The method, then:
(§1) The activity of the compounds against human cancer cell lines (PC3, H460, H1299) were assessed by using the ATP-LITE assay (PerkinElmer). All cells were seeded in either […] or RPMI1640 medium with 5 mM L-glutamine supplemented with 5% fetal bovine serum (Mediatech Inc.), penicillin and streptomycin (Omega). For maintenance, cells were cultured in 5% FBS. Cells plated into 96 well plates at varying initial densities depending on doubling time. H460 and H1299 plated at 2000 cells/well and PC3 at 3000 cells/well. Compounds were diluted to final concentrations with 0.1% DMSO. Prior to dispensing compounds onto cells, fresh 5% media was placed into wells. Administration of compounds occurred 24 hours after seeding into the fresh media. Cell viability was evaluated using ATP-LITE reagent (PerkinElmer) after 72 hours of treatment. Data were normalized to the DMSO control-treated cells using Prism version 5.01 (Graphpad Software).

For data set [9], the system named is H460 cell line. Nature of the data set: ATP-LITE cell viability assay, H460. The class given is cell-based. The settings on record: Homo sapiens, NCI-H460, 72 h, 3 days. The method, then:
(§2) The activity of the compounds of Formula I against human cancer cell lines (PC3ML, H460, H1299, RS11846) may be assessed by using the ATP-LITE assay (PerkinElmer). All cells are seeded in either F12 or RPMI1640 medium with 5 mM L-glutamine supplemented with 5% fetal bovine serum (Mediatech Inc.), penicillin and streptomycin (Omega). For maintenance, cells are cultured in 5% FBS. Cells plated into 96 well plates at varying initial densities depending on doubling time. H460 and H1299 plated at 2000 cells/well, A549 and PC3 at 3000 cells/well, and […] at 10,000 cells/well. The compounds are diluted to final concentrations with 0.1% DMSO. Prior to dispensing the compounds onto cells, fresh 5% media is placed into the wells. Administration of compounds occurs 24 hours after seeding into the fresh media. Cell viability may be evaluated using ATP-LITE reagent (PerkinElmer) after 72 hours of treatment. Data are normalized to the DMSO control-treated cells using Prism version 5.01 (Graphpad Software).
as §1

A further data set relates to H1299 cell line. Nature of the data set: ATP-LITE cell viability assay, H1299. The settings on record: Homo sapiens, NCI-H1299, 72 h, 3 days. The data set is classed as cell-based. The method, then: as §2, §1
The next data set concerns BP3 cell line. Nature of the data set: Annexin V-FITC and propidium iodide apoptosis assay, BP3. Conditions: Homo sapiens, BP3, 24 h; Annexin V-FITC and propidium iodide assay, 1 day. The data set is classed as cell-based, human.
The test system of another data set is RS4;11 cell line. Put plainly: Annexin V-FITC and propidium iodide apoptosis assay, RS4;11. The data set is classed as cell-based. Conditions: Homo sapiens, RS4-11, 24 h, 1 day.
In data set [10] the test system is H460 cell line. Conditions: pan-Bcl-2 family inhibitor from literature; cited from earlier work.

Like-named read-outs stand apart in the source and are kept apart here. Bounds are passed on as bounds.

Mcl-1, sequence (Q07820 whole entry): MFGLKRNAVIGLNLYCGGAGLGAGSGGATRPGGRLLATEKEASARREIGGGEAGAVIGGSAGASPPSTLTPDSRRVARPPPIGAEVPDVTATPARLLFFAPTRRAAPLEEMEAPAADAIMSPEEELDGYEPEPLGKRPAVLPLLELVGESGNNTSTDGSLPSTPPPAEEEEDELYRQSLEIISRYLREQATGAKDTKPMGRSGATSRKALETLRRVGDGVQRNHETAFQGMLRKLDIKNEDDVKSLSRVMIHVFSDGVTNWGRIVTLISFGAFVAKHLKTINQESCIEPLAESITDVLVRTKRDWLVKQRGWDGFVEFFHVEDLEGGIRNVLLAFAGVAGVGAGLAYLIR
Bcl-2, sequence (P10415 whole entry): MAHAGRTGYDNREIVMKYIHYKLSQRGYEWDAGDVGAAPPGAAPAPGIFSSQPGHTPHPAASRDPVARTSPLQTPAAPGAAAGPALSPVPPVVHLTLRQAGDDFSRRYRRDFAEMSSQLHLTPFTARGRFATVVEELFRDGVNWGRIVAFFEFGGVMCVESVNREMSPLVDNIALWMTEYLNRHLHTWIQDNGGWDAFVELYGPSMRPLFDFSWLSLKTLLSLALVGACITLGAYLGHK
Procedure for BP3 cell line: (§5) The apoptotic activity of the compounds against RS4;11, BP3 and primary CLL cells was assessed by staining with Annexin V-FITC and propidium iodide (PI). Cells were cultured in RPMI 1640 medium (Mediatech Inc., Herndon, Va. 20171) containing 10% fetal bovine serum (Mediatech Inc., Herndon, Va. 20171) and Penicillin/Streptomycin (Mediatech Inc., Herndon, Va. 20171). […] The percentage of viable cells was determined by FITC-Annexin V- and propidium iodide (PI)-labeling, using an Apoptosis Detection kit (BioVision Inc.), and analyzing stained cells by flow cytometry (FACSort; Bectin-Dickinson, Inc.; Mountain View, Calif.). Cells that were annexin-V-negative and PI-negative were considered viable.
Procedure for Bcl-2: as §3
Procedure for Bfl-1: as §3
Procedure for Mcl-1: as §3
Procedure for PPC-1 xenograft tumors: Female 6-week-old nude mice were purchased from Charles River Laboratories. 5×10^6 PCC-1 cells suspended in 0.2 ml PBS were injected subcutaneously into a flank region of each nude mouse. Tumor bearing mice were size matched (200 mm^3) into treatment and control group, ear tagged, and monitored individually. Tumor volume was measured two to three times weekly by digital calipers (volume=length×width^2/2). All studies use 6 mice per group. […] Control mice received saline. The injections were given three times in first week, twice in second week and once in third week and a total of six injections were administered during the experiment. When all tumors of the control group exceed 2000 mm^3 in volume, the animal experiment was terminated. Tumor growth inhibition ratios (T/C %) were calculated by dividing the average tumor volume in the treatment group by the average tumor volume in the control group.
Procedure for RS4;11 cell line: as §5
Procedure for primary CLL cells: as §5

Consider `Cc1cc2c(C(C)C)c(O)c(O)cc2c(O)c1-c1c(C)cc2c(C(C)C)c(O)c(O)cc2c1O` [Apogossypol], for which the “degraded after 1 hour incubation in rat plasma” value is 47%. In “EC50 values of FIG. 3(B)”, the EC50 came to 2800 nM. Also, the “degraded after 60 days at room temperature” value in [1] is listed as around 80%. Besides, the “degraded after 1 hour incubation in rat microsomal preparations” value in data set [2] came to 36%.
As to `CC1=C(C2=C(C)C(=O)c3c(cc(O)c(O)c3C(C)C)C2=O)C(=O)c2cc(O)c(O)c(C(C)C)c2C1=O` [Compound 6a, 6,6′,7,7′-tetrahydroxy-5,5′-diisopropyl-3,3′-dimethyl-2,2′-binaphthyl-1,1′,4,4′-tetraone, reference compound], the “1D-1H NMR” value at Bcl-XL [3] was “+++”. In addition, the “LD50 primary CLL samples” value in the data set with primary CLL cells (comparison of 6c with 6a) is above 30 µM; in the data set on primary CLL cells (two primary CLL samples, one day Annexin-V apoptosis assay), above 30 µM. Further, the IC50 on Bcl-XL [4] was 630 ± 20 nM; on Bcl-2, 370 ± 20 nM; on Bfl-1, 2170 ± 350 nM; on Mcl-1, 540 ± 30 nM. This compound came in with a Kd on Bcl-XL [5] of 2800 nM. For the same compound, the “maximum tolerated dose (MTD)” value in data set [6] was “above 240 mg/kg”. Further, the “degraded after 1 hour incubation in rat plasma” value in [7] (1 h, rat plasma (preparations)) is 23%. The “Plasma Stability (T = 40 mins)” value in data set [7] is recorded as 77%. Further, the “average body weight losses during the treatment” value with PPC-1 xenograft tumors (50 mg/kg i.p.) is recorded as 9.3%. In the data set on PPC-1 xenograft tumors (50 mg/kg i.p. three times in first week), the “weight loss in first week” value was around 5%.
As for `CC1=C(C2=C(C)C(=O)c3c(cc(O)c(O)c3CC(C)C)C2=O)C(=O)c2cc(O)c(O)c(CC(C)C)c2C1=O` [Compound 6b, 6,6′,7,7′-tetrahydroxy-5,5′-diisobutyl-3,3′-dimethyl-2,2′-binaphthyl-1,1′,4,4′-tetraone], at Bcl-XL [3], the “1D-1H NMR” value was “+++”. Further, the IC50 at Bcl-XL [4] was 550 ± 60 nM; on Bcl-2 it was 250 ± 20 nM; at Bfl-1, 1410 ± 110 nM; at Mcl-1 it was 470 ± 30 nM. For the same compound, the Kd at Bcl-XL [5] was 1500 ± 800 nM. Besides, the “Plasma Stability (T = 40 mins)” value in data set [7] is 98%. Besides, in data set [8], the “Microsomal Stability (T = 40 mins)” value is 69%.
For the compound `CC1=C(C2=C(C)C(=O)c3c(cc(O)c(O)c3CCc3ccccc3)C2=O)C(=O)c2cc(O)c(O)c(CCc3ccccc3)c2C1=O` [Compound 6e, 6,6′,7,7′-tetrahydroxy-3,3′-dimethyl-5,5′-diphenethyl-2,2′-binaphthyl-1,1′,4,4′-tetraone], the EC50 in the data set with PC3 cell line is 1400 ± 140 nM; with H460 cell line [9], 1040 ± 130 nM; with H1299 cell line, 850 ± 360 nM; in the data set with BP3 cell line, 8720 ± 2530 nM; with RS4;11 cell line it was 4750 ± 10 nM. Also, the “Plasma Stability (T = 40 mins)” value in [7] was 81%. The “Microsomal Stability (T = 40 mins)” value in [8] is 89%.
For the compound `COC1=CC(c2cc3ccccc3[nH]2)=N/C1=C\c1[nH]c(C)cc1C` [GX15-070], in the data set on H460 cell line [10], the IC50 was 3850 nM.

Source of the values: patent US8937193B2, “Apogossypolone derivatives as anticancer agents” (Sanford-Burnham Medical Research Institute, priority 2009, dated 2015).
